From patent publication US10472352B2, “Rac inhibitors” (Geneyus LLC, priority 2017, dated 2019)

Key:
[1] = test system: HUVECs; experiment: Cell Migration Assay (Boyden chamber); assay type: cell-based; conditions: 5 uM
Experimental: An essential characteristic of malignant cells is their ability to migrate, invade host tissues and to produce metastases. In order to evaluate the capacity of one compound to affect the ability of tumoral cells to migrate, migration assays were performed using HUVEC cells.
HUVECs (2.5×10^4) were seeded onto uncoated filters in a 24-well transwell Boyden chamber ([…]; Costar) and allowed to migrate in the presence and absence of different doses of the Rac1 inhibitor 0032253 (5, 6.25, 10, 12.5, 20, 25 μM). The cells that migrated to the underside of the filter were stained with crystal violet and counted under the bright field microscopy.

[2] = target: His-Rac1 / GST-PBD (PAK Binding Domain) (Homo sapiens, UniProt P63000); experiment: Rac Activation AlphaScreen Assay (Rac1 AS); assay type: biochemical; conditions: 500 nM GTPγS, 37° C., 1 hour; 'positive' = signal generated was higher than the positive control
Experimental: AlphaScreen® assays were performed in 96-well microplates in a final reaction volume of 60 μl. Recombinant His-Rac1, recombinant GST-PBD (PAK Binding Domain), donor and acceptor beads (PerkinElmer), and inhibitors were incubated in exchange buffer (20 mM Tris pH 7.5, 50 mM NaCl, 1 mM MgCl2, 1 mM EDTA, 500 nM GTPγS (guanosine 5′-[γ-thio]triphosphate)) at 37° C. Readings were performed on a Tecan M1000 pro microplate reader after 1 hour.

[3] = test system: HUVECs; experiment: Cellular Proliferation Assay; assay type: cell-based; conditions: 25 uM, cells counted day 0 through day 4
Experimental: 25,000 cells were seeded in 6-well plates. The next day, vehicle (DMSO) or 25 μM 0032253 was added to cells (Day 0). Cells were counted on days 0 through day 4 using a hemocytometer.

[4] = test system: WM1158 cells; experiment: Western Blot Analysis of phosphorylated AKT, MEK1/2, ERK1/2; assay type: cell-based; conditions: increasing concentrations, two hours, vs DMSO control
Source text: Western blot analysis is used to identify specific proteins from a complex mixture of proteins extracted from cells. Equal amount of protein is run on the SDS-PAGE gel and after separating the protein mixture, it is transferred to a membrane. The transferred protein is then probed with a combination of antibodies: one antibody specific to the protein of interest (primary antibody) and another antibody specific to the host species of the primary antibody (secondary antibody). The secondary antibody is complexed with an enzyme, which when combined with an appropriate substrate, will produce a detectable signal.
WM1158 cells were treated with increasing concentrations of 0032253 for two hours. SDS-PAGE was conducted on cell lysates and Western Blot analysis was conducted on samples for total and phosphorylated AKT, MEK1/2, and ERK1/2.

[5] = test system: MCF-7 human breast cancer cell line; experiment: Cell Viability Assay (MCF7), PrestoBlue; assay type: cell-based; conditions: MCF7, 72 h, MCF-7 cells, three days after drug treatment
Experimental: In order to determine a compound's effect on cell viability, PrestoBlue assays were performed as previously described by Kuhn et al. (2013) with modifications. MCF-7 human breast cancer and IGR-1 human melanoma cell lines were seeded into 96-well plates 24 hours prior to addition of drug. Cells were treated with 0 to 200 μM (11 concentrations) of compound solubilized in DMSO, adjusting the final concentration of DMSO to 1% in the well. Three days after drug treatment, cell viability was measured by adding PrestoBlue (Life Technologies Ltd.; cat. No. A13262) reagent directly to wells containing media/drug to reach a final concentration of 10%. PrestoBlue is a modified molecule of the common Alamar Blue probe used to determine viability based on the ability of a cell to metabolize a nonfluorescent compound (resazurin) to a florescent molecule (resorufin). Following a 1 hour incubation period, total well fluorescence was measured using the microplate reader M1000 pro (Tecan) with excitation 560-5 nm and emission 590-5 nm. […] The percentage of living cells was then computed by comparison with control wells. Kuhn, Jonas et al., Assay and Drug Development Technologies, March 2013, Label-Free Cytotoxicity Screening Assay by Digital Holographic Microscopy.

[6] = target: T1, Rac1 protein (Homo sapiens, UniProt P63000); experiment: Fluorescence Polarization Assay (Rac1 FP); assay type: binding; conditions: 125 nM his-tagged Rac1, 12.5 nM Bodipy-TR GTPγS, 30 minutes at 37° C.
T1 construct: purchased Cytoskeleton Inc. RC01
Experimental: Direct binding of Rac1 compound inhibitors to Rac1 protein was performed using fluorescence polarization (FP). Briefly, Rac1 inhibitors were initially dissolved in DMSO and then serial drug dilutions in exchange buffer (20 mM Tris pH 7.5, 50 mM NaCl, 1 mM MgCl, 1 mM EDTA) were prepared in a flat black 96-well half-area plate (Greiner). Recombinant his-tagged Rac1 protein (Cytoskeleton Inc. Cat. # RC01) was added to the inhibitors at a final concentration of 125 nM along with 12.5 nM Bodipy-TR GTPγS (Life Technologies Inc. Cat. # G35780) in exchange buffer and incubated for 30 minutes at 37° C. in exchange buffer. After 30 minutes of incubation. FP was measured on the M1000 Pro (Tecan) fluorescent plate reader with 590 nm±5 nm excitation and 625 nm±5 nm emission spectra settings.

[7] = test system: HUVECs; experiment: HUVEC Tube Formation Assay; assay type: cell-based; conditions: doses above 6.25 μM, 8 h, Matrigel
Experimental: The endothelial cell tube formation assay is an in vitro assay that is widely accepted to accurately reflect number of terminal stages of the angiogenic process such as attachment, migration and differentiation into tubular structures. In this model, endothelial cells are cultured on a monolayer of reconstituted basement membrane components (Matrigel) and form, in a few hours, capillary-like structure. Therefore, this system is a useful and powerful tool for rapidly screening anti-angiogenic agents by monitoring inhibition of endothelial cells morphogenesis on extracellular matrix.
HUVECs (5×10^3) were seeded on top of Matrigel in a 24-well plate. The cells were treated either with DMSO or different concentrations of the Rac1 inhibitor 0032253 (5, 6.25, 10, 12.5 μM) for 8 h in triplicate. The plates were scanned by LICOR Odyssey Imaging system.

FC(F)(F)c1ccc2c(SCCCCCCn3cc(CN4CCOCC4)nn3)ccnc2c1 (racemic) [Compound 0032253, 4-({6-[4-(morpholin-4-ylmethyl)-1H-1,2,3-triazol-1-yl]hexyl}sulfanyl)-7-(trifluoromethyl)quinoline]
HUVEC migration through a Boyden Chamber [1]: impairs the ability of HUVECs to migrate through a Boyden Chamber
Rac1 AS IC50(uM) [2]: positive
HUVEC proliferation [3]: completely inhibits the ability of HUVECs to proliferate
expression of phosphorylated AKT [4]: reduced as compared to DMSO control
expression of phosphorylated ERK1/2 [4]: reduced as compared to DMSO control
expression of phosphorylated MEK1/2 [4]: reduced as compared to DMSO control
IC50 [5]: 4.38 µM
IC50 [6]: 3.42 µM
HUVEC tube formation [7]: significantly reduce the ability of HUVECs to form tube like structures
